The assay has as its system isolated rat adipocytes. The assay is described as follows: Biological Activity in Isolated Rat Adipocytes (incorporation of 2-3H-glucose in total fat cell lipid). The assay is classed as cell-based. The following applies: 2-3H-glucose incorporation in total fat cell lipid, 37° for 1 hr, mean±SEM. The protocol:
Adipocytes were prepared from epididymal fat pads by a modification (Huber, supra) of the collagenase digestion procedure of Rodbell, supra. Krebs-Ringer-HEPES (KRH) buffer, pH 7.4, containing 4% bovine serum albumin and 0.55 mM glucose was used in all isolation and incubation steps.
Biological activity was assessed according to the method of Moody, A. J., Stan, M. A., Stan, M., and Glieman, J., Horm. Metab. Res. 6, 12-16 (1974) by monitoring the incorporation of 2-^3 H-glucose in total fat cell lipid. […] Radioactivity was determined in a Searle Isocap 300 liquid scintillation counter at an efficiency of approximately 30%. Blanks were prepared in which the scintillation fluid was added to the vials prior to the addition of cells. The average counts obtained from these vials were subtracted from those observed in all other samples.
Competitive binding curves and biological activity dose-response curves were analyzed using the PREFIT and ALLFIT programs [DeLean, A., Munson, P. J., and Rodbard, D., Am. J. Physiol. 235, E97-E102 (1978)] based on a four-parameter logistic model. These analyses indicated the concentration of insulin or proinsulin necessary to produce a half-maximal response, as well as the maximal and minimal values. All values are presented as the mean±SEM.

On to “Human Insulin: human insulin, reference in the binding and activity assays”, for which the ED50 was 5.32 ± 0.7 × 10^-11 M. Regarding “Human Proinsulin: human proinsulin, starting material and reference; relative potency set to 1”, the ED50 was 1.24 ± 0.2 × 10^-8 M.

These data come from patent US4581165A, “Anti-diabetic compounds” (Eli Lilly and Company, priority 1984, dated 1986).
